Tested on: HBsAg
Assay: HBsAg assay (CLIA of secreted HBsAg in HepG2.2.15 culture supernatant)
Type: cell-based, HBV
Details: Hepatitis B virus
Protocol: HepG2.2.15 cells (Acs et al. Proc Natl Acad Sci USA, 84, (1987), 4641-4), a constitutively HBV-expressing cell line were cultured in DMEM+Glutamax-I medium (Invitrogen, Carlsbad, Calif., USA), supplemented with 10% fetal bovine serum (Invitrogen) and G418 (Invitrogen) at a final concentration of 200 mg/L and maintained in 5% CO2 at 37° C.
HepG2.2.15 cells were seeded in duplicate into white, 96-well plates at 1.5×10^4 cells/well. The cells were treated with a three-fold serial dilution series of the compounds in DMSO. The final DMSO concentration in all wells was 1% and DMSO was used as no drug control.
The HBsAg chemiluminescence immunoassay (CLIA) kit (Autobio Diagnostics Co., Zhengzhou, China, Catalog number: CL0310-2) was used to measure the levels of secreted HBV antigens semi-quantitatively. For the detection 50 μL/well culture supernatant was used and HBsAg was quantified using HBsAg chemiluminescence immunoassay (CLIA) kit (Autobio Diagnostics Co., Zhengzhou, China, Catalog number: CL0310-2), 50 μL of the supernatant was transferred to the CLIA assay plate and 50 μL of enzyme conjugate reagent was added into each well. The plates were sealed and gently agitated for 1 hour at room temperature. The supernatant-enzyme-mixture was discarded and wells were washed 6 times with 300 μL of PBS. The residual liquid was removed by plating the CLIA plate right side down on absorbent tissue paper. 25 μL of substrates A and B were added to each well. Luminance was measured using a luminometer (Mithras LB 940 Multimode Microplate Reader) after 10 minutes incubation. Dose-response curves were generated and the IC50 value was extrapolated by using the E-WorkBook Suite (ID Business Solutions Ltd., Guildford, UK). The IC50 was defined as the compound concentration at which HBsAg secretion was reduced by 50% compared to the no drug control.
The compounds according to formula I were tested for their capacity to inhibit HBsAg as described herein.

First: CC1c2cnc(-c3cscn3)nc2CCN1c1cc(OCC2CC2)cc(F)n1 (centres unmarked) [Example 32, 4-[6-[4-(cyclopropylmethoxy)-6-fluoro-2-pyridyl]-5-methyl-7,8-dihydro-5H-pyrido[4,3-d]pyrimidin-2-yl]thiazole]
Second: CC1c2cnc(-c3cscn3)nc2CCN1c1cc(OCC2CCOC2)cc(F)n1 (centres unmarked) [Example 38, 4-[6-[6-fluoro-4-(tetrahydrofuran-3-ylmethoxy)-2-pyridyl]-5-methyl-7,8-dihydro-5H-pyrido[4,3-d]pyrimidin-2-yl]thiazole]
The IC50 of the first is 1.9-fold higher: 39 nM for the first, 20 nM for the second.

Going from `CC1c2cnc(-c3cscn3)nc2CCN1c1cc(F)nc(N2CCNC(=O)C2)c1` (centres unmarked) [Example 28, 4-[6-fluoro-4-(5-methyl-2-thiazol-4-yl-7,8-dihydro-5H-pyrido[4,3-d]pyrimidin-6-yl)-2-pyridyl]piperazin-2-one] to `CC1c2cnc(-c3cscn3)nc2CCN1c1cc(F)cc(N2CCNC(=O)C2)n1` (centres unmarked) [Example 30, 4-[4-fluoro-6-(5-methyl-2-thiazol-4-yl-7,8-dihydro-5H-pyrido[4,3-d]pyrimidin-6-yl)-2-pyridyl]piperazin-2-one], the IC50 falls from 42 nM to 21 nM (2-fold).

Compared with `CC1c2cnc(-c3cscn3)nc2CCN1c1cc(N(C)C)cc(F)n1` (centres unmarked) [Example 11, 2-Fluoro-N,N-dimethyl-6-(5-methyl-2-thiazol-4-yl-7,8-dihydro-5H-pyrido[4,3-d]pyrimidin-6-yl)pyridin-4-amine], `CC1c2cnc(-c3cscn3)nc2CCN1c1cc(OCC(F)F)cc(F)n1` (centres unmarked) [Example 35, 4-[6-[4-(2,2-difluoroethoxy)-6-fluoro-2-pyridyl]-5-methyl-7,8-dihydro-5H-pyrido[4,3-d]pyrimidin-2-yl]thiazole] is 1.5-fold higher in IC50: 26 nM for the first, 39 nM for the second.

Compared with `COc1cc(F)nc(N2CCc3nc(-c4cnc(C)s4)ncc3C2C)c1` (centres unmarked) [Example 16, 5-[6-(6-fluoro-4-methoxy-2-pyridyl)-5-methyl-7,8-dihydro-5H-pyrido[4,3-d]pyrimidin-2-yl]-2-methyl-thiazole], `COc1cc(F)nc(N2CCc3nc(-c4ncsc4C)ncc3C2C)c1` (centres unmarked) [Example 42, 4-[6-(6-Fluoro-4-methoxy-2-pyridyl)-5-methyl-7,8-dihydro-5H-pyrido[4,3-d]pyrimidin-2-yl]-5-methyl-thiazole] is 91-fold lower in IC50: 25800 nM for the first, 282 nM for the second.

First: CC1c2cnc(-c3cscn3)nc2CCN1c1cc(OCCCN2CCCC2=O)cc(F)n1 (centres unmarked) [Example 41, 1-[3-[[2-fluoro-6-(5-methyl-2-thiazol-4-yl-7,8-dihydro-5H-pyrido[4,3-d]pyrimidin-6-yl)-4-pyridyl]oxy]propyl]pyrrolidin-2-one]
Second: CC1c2cnc(-c3cscn3)nc2CCN1c1cc(F)nc(OCCCN2CCCC2=O)c1 (centres unmarked) [Example 40, 1-[3-[[6-fluoro-4-(5-methyl-2-thiazol-4-yl-7,8-dihydro-5H-pyrido[4,3-d]pyrimidin-6-yl)-2-pyridyl]oxy]propyl]pyrrolidin-2-one]
The IC50 of the first is 2.2-fold lower: 102 nM for the first, 222 nM for the second. The first is the more potent here.

`CC1c2cnc(-c3cscn3)nc2CCN1c1cc(N2CCCC2)cc(F)n1` (centres unmarked) [Example 18, 4-[6-(6-fluoro-4-pyrrolidin-1-yl-2-pyridyl)-5-methyl-7,8-dihydro-5H-pyrido[4,3-d]pyrimidin-2-yl]thiazole] and `COC1CCN(c2cc(F)nc(N3CCc4nc(-c5cscn5)ncc4C3C)c2)C1` (centres unmarked) [Example 24, 4-[6-[6-fluoro-4-(3-methoxypyrrolidin-1-yl)-2-pyridyl]-5-methyl-7,8-dihydro-5H-pyrido[4,3-d]pyrimidin-2-yl]thiazole] are within 1.5-fold of each other in IC50: 16 nM for the first, 23 nM for the second.

`CC1c2cnc(-c3cscn3)nc2CCN1c1cc(F)nc(OCC(F)F)c1` (centres unmarked) [Example 34, 4-[6-[2-(2,2-difluoroethoxy)-6-fluoro-4-pyridyl]-5-methyl-7,8-dihydro-5H-pyrido[4,3-d]pyrimidin-2-yl]thiazole] and `CC1c2cnc(-c3cscn3)nc2CCN1c1cc(F)cc(OCC(F)F)n1` (centres unmarked) [Example 36, 4-[6-[6-(2,2-difluoroethoxy)-4-fluoro-2-pyridyl]-5-methyl-7,8-dihydro-5H-pyrido[4,3-d]pyrimidin-2-yl]thiazole] are within 1.5-fold of each other in IC50: 140 nM for the first, 112 nM for the second.

First: COC1CCN(c2cc(F)cc(N3CCc4nc(-c5cscn5)ncc4C3C)n2)C1 (centres unmarked) [Example 25, 4-[6-[4-fluoro-6-(3-methoxypyrrolidin-1-yl)-2-pyridyl]-5-methyl-7,8-dihydro-5H-pyrido[4,3-d]pyrimidin-2-yl]thiazole]
Second: COC1CCN(c2cc(N3CCc4nc(-c5cscn5)ncc4C3C)cc(F)n2)C1 (centres unmarked) [Example 23, 4-[6-[2-fluoro-6-(3-methoxypyrrolidin-1-yl)-4-pyridyl]-5-methyl-7,8-dihydro-5H-pyrido[4,3-d]pyrimidin-2-yl]thiazole]
The IC50 of the first is 1.7-fold higher: 60 nM for the first, 35 nM for the second.

First: COc1cc(F)nc(N2CCc3nc(-n4ccnn4)ncc3C2C)c1 (centres unmarked) [Example 2, 6-(6-Fluoro-4-methoxy-2-pyridyl)-5-methyl-2-(triazol-1-yl)-7,8-dihydro-5H-pyrido[4,3-d]pyrimidine]
Second: COc1cc(F)nc(N2CCc3nc(-n4cccn4)ncc3C2C)c1 (centres unmarked) [Example 9, 6-(6-Fluoro-4-methoxy-2-pyridyl)-5-methyl-2-pyrazol-1-yl-7,8-dihydro-5H-pyrido[4,3-d]pyrimidine]
The IC50 of the first is 240-fold higher: 22900 nM for the first, 95 nM for the second. The second is the more potent here.

Compared with `CC1c2cnc(-c3cscn3)nc2CCN1c1cc(F)cc(OCC2CCOC2)n1` (centres unmarked) [Example 39, 4-[6-[4-fluoro-6-(tetrahydrofuran-3-ylmethoxy)-2-pyridyl]-5-methyl-7,8-dihydro-5H-pyrido[4,3-d]pyrimidin-2-yl]thiazole], `CC1c2cnc(-c3cscn3)nc2CCN1c1cc(F)cc(N2CCOCC2)n1` (centres unmarked) [Example 14, 4-[4-fluoro-6-(5-methyl-2-thiazol-4-yl-7,8-dihydro-5H-pyrido[4,3-d]pyrimidin-6-yl)-2-pyridyl]morpholine] is 1.9-fold lower in IC50: 139 nM for the first, 74 nM for the second. The second is the more potent here.

First: COc1cc(F)nc(N2CCc3nc(-n4nccn4)ncc3C2C)c1 (centres unmarked) [Example 3, 6-(6-Fluoro-4-methoxy-2-pyridyl)-5-methyl-2-(triazol-2-yl)-7,8-dihydro-5H-pyrido[4,3-d]pyrimidine]
Second: COc1cc(F)nc(N2CCc3nc(-c4cn(C)cn4)ncc3C2C)c1 (centres unmarked) [Example 8, 6-(6-Fluoro-4-methoxy-2-pyridyl)-5-methyl-2-(1-methylimidazol-4-yl)-7,8-dihydro-5H-pyrido[4,3-d]pyrimidine]
The IC50 of the first is 23-fold higher: 666 nM for the first, 29 nM for the second. The second is the more potent here.

Compared with `COc1cc(F)nc(N2CCc3nc(-c4cn(Cc5ccccc5)cn4)ncc3C2C)c1` (centres unmarked) [Example 10, 2-(1-Benzylimidazol-4-yl)-6-(6-fluoro-4-methoxy-2-pyridyl)-5-methyl-7,8-dihydro-5H-pyrido[4,3-d]pyrimidine], `COc1cc(F)nc(N2CCc3nc(-c4csc(C)n4)ncc3C2C)c1` (centres unmarked) [Example 15, 4-[6-(6-fluoro-4-methoxy-2-pyridyl)-5-methyl-7,8-dihydro-5H-pyrido[4,3-d]pyrimidin-2-yl]-2-methyl-thiazole] is 3.6-fold higher in IC50: 421 nM for the first, 1520 nM for the second.

First: CC1c2cnc(-c3cscn3)nc2CCN1c1cc(F)cc(N2CCN(S(C)(=O)=O)CC2)n1 (centres unmarked) [Example 22, 4-[6-[4-fluoro-6-(4-methylsulfonylpiperazin-1-yl)-2-pyridyl]-5-methyl-7,8-dihydro-5H-pyrido[4,3-d]pyrimidin-2-yl]thiazole]
Second: CC1c2cnc(-c3cscn3)nc2CCN1c1cc(N2CCN(S(C)(=O)=O)CC2)cc(F)n1 (centres unmarked) [Example 21, 4-[6-[6-fluoro-4-(4-methylsulfonylpiperazin-1-yl)-2-pyridyl]-5-methyl-7,8-dihydro-5H-pyrido[4,3-d]pyrimidin-2-yl]thiazole]
The IC50 of the first is 4.1-fold higher: 66 nM for the first, 16 nM for the second. The second is the more potent here.
